pIC50: −log10 of the molar value.
Columns and labels:
[1] = molecular target: hOX1R (Homo sapiens, UniProt O43613); experiment: FLIPR Ca2+ flux assay, hOX1R; type: cell-based; conditions: CHO cells; agonist 70 pM Ala-6,12 orexin-A; rat orexin-1 receptor; read-out: hOX1R FLIPR IC50
[2] = molecular target: human orexin-2 receptor (Homo sapiens (Human), UniProt O43614); experiment: FLIPR Ca2+ flux assay, hOX2R; type: cell-based; conditions: CHO cells expressing human orexin-2 receptor; agonist 70 pM Ala-6,12 orexin-A
human orexin-2 receptor, sequence (O43614 whole entry): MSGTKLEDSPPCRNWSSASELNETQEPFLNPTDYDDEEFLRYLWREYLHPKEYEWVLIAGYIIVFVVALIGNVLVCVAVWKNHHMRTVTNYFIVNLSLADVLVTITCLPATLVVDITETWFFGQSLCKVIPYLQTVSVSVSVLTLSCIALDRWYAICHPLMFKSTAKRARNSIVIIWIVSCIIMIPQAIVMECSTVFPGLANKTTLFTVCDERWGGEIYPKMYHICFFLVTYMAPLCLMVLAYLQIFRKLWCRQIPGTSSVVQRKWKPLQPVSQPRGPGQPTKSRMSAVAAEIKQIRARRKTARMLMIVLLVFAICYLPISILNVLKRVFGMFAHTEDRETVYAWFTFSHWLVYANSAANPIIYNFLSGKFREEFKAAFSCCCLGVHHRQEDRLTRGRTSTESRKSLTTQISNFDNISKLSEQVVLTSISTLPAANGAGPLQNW
Protocol: In a typical experiment the OX1 and OX2 receptor antagonistic activity of the compounds of the present invention was determined in accordance with the following experimental method. For intracellular calcium measurements, Chinese hamster ovary (CHO) cells expressing the rat orexin-1 receptor or the human orexin-2 receptor, are grown in Iscove's modified DMEM containing 2 mM L-glutamine, […], 1% hypoxanthine-thymidine supplement, 100 U/ml penicillin, 100 μg/ml streptomycin and 10% heat-inactivated fetal calf serum (FCS). The cells are seeded at 20,000 cells/well into Becton-Dickinson black 384-well clear bottom sterile plates coated with poly-D-lysine. All reagents were from GIBCO-Invitrogen Corp. The seeded plates are incubated overnight at 37° C. and 5% CO2. Ala-6,12 human orexin-A as the agonist is prepared as a 1 mM stock solution in 1% bovine serum albumin (BSA) and diluted in assay buffer (HBSS containing 20 mM HEPES, 0.1% BSA and 2.5 mM probenecid, pH7.4) for use in the assay at a final concentration of 70 pM. Test compounds are prepared as 10 mM stock solution in DMSO, then diluted in 384-well plates, first in DMSO, then assay buffer. On the day of the assay, cells are washed 3 times with 100 μl assay buffer and then incubated for 60 min (37° C., 5% CO2) in 60 μl assay buffer containing 1 μM Fluo-4AM ester, 0.02% pluronic acid, and 1% BSA. The dye loading solution is then aspirated and cells are washed 3 times with 100 μl assay buffer. 30 μl of that same buffer is left in each well. Within the Fluorescent Imaging Plate Reader (FLIPR, Molecular Devices), test compounds are added to the plate in a volume of 25 μl, incubated for 5 min and finally 25 μl of agonist is added. Fluorescence is measured for each well at 1 second intervals for 5 minutes and the height of each fluorescence peak is compared to the height of the fluorescence peak induced by 70 pM Ala-6,12 orexin-A with buffer in place of antagonist. […] The intrinsic orexin receptor antagonist activity of a compound which may be used in the present invention may be determined by these assays.

Compound | pIC50 [1] | pIC50 [2]
CC[C@@](C)(O)c1nc([C@@H]2CC[C@@H](C)N(C(=O)c3cscc3-n3nccn3)C2)oc1C [Example 47, (4-(2H-1,2,3-triazol-2-yl)thiophen-3-yl)((2R,5R)-5-(4-((R)-2-hydroxybutan-2-yl)-5-methyloxazol-2-yl)-2-methylpiperidin-1-yl)methanone] | 5.01 | 7.74
C[C@@H]1CC[C@@H](c2nc(C(C)(C)O)c(Cl)o2)CN1C(=O)c1ccccc1-n1nccn1 [Example 52, (2-(2H-1,2,3-Triazol-2-yl)phenyl)((2R,5R)-5-(5-chloro-4-(2-hydroxypropan-2-yl)oxazol-2-yl)-2-methylpiperidin-1-yl)methanone] | 5.50 | 6.58
C[C@@H]1CC[C@@H](c2nc(C(C)(C)O)c(C(F)F)o2)CN1C(=O)c1ccccc1-n1nccn1 [Example 53, (2-(2H-1,2,3-Triazol-2-yl)phenyl)((2R,5R)-5-(5-(difluoromethyl)-4-(2-hydroxypropan-2-yl)oxazol-2-yl)-2-methylpiperidin-1-yl)methanone] | 6.50 | 7.37
C[C@@H]1CC[C@@H](c2nc(C(C)(C)O)c(C(F)(F)F)o2)CN1C(=O)c1ccccc1-n1nccn1 [Example 54, (2-(2H-1,2,3-Triazol-2-yl)phenyl)((2R,5R)-5-(4-(2-hydroxypropan-2-yl)-5-(trifluoromethyl)oxazol-2-yl)-2-methylpiperidin-1-yl)methanone] | 6.62 | 7.38
Cc1nc([C@@H]2CC[C@@H](C)N(C(=O)c3ccccc3-n3nccn3)C2)oc1C(C)(C)O [Example 55, (2-(2H-1,2,3-Triazol-2-yl)phenyl)((2R,5R)-5-(5-(2-hydroxypropan-2-yl)-4-methyloxazol-2-yl)-2-methylpiperidin-1-yl)methanone] | 7.05 | 7.20
COC(=O)c1nc([C@@H]2CC[C@@H](C)N(C(=O)c3ccccc3-n3nccn3)C2)oc1-c1ccccc1 [Example 56, Methyl 2-((3R,6R)-1-(2-(2H-1,2,3-triazol-2-yl)benzoyl)-6-methylpiperidin-3-yl)-5-phenyloxazole-4-carboxylate] | 6.44 | 5.80
C[C@@H]1CC[C@@H](c2nc(CO)c(-c3ccccc3)o2)CN1C(=O)c1ccccc1-n1nccn1 [Example 57, (2-(2H-1,2,3-Triazol-2-yl)phenyl)((2R,5R)-5-(4-(hydroxymethyl)-5-phenyloxazol-2-yl)-2-methylpiperidin-1-yl)methanone] | 6.43 | 5.93
C[C@@H]1CC[C@@H](c2nc(CF)c(-c3ccccc3)o2)CN1C(=O)c1ccccc1-n1nccn1 [Example 58, (2-(2H-1,2,3-Triazol-2-yl)phenyl)((2R,5R)-5-(4-(fluoromethyl)-5-phenyloxazol-2-yl)-2-methylpiperidin-1-yl)methanone] | 6.66 | 6.80
COCc1nc([C@@H]2CC[C@@H](C)N(C(=O)c3ccccc3-n3nccn3)C2)oc1-c1ccccc1 [Example 59, (2-(2H-1,2,3-Triazol-2-yl)phenyl)((2R,5R)-5-(4-(methoxymethyl)-5-phenyloxazol-2-yl)-2-methylpiperidin-1-yl)methanone] | 7.00 | 6.46
C[C@@H]1CC[C@@H](c2nc(C(C)(C)O)c(-c3ccccc3)o2)CN1C(=O)c1ccccc1-n1nccn1 [Example 60, (2-(2H-1,2,3-Triazol-2-yl)phenyl)((2R,5R)-5-(4-(2-hydroxypropan-2-yl)-5-phenyloxazol-2-yl)-2-methylpiperidin-1-yl)methanone] | 7.12 | 7.08
C[C@@H]1CC[C@@H](c2nc(C(N)=O)c(-c3ccccc3)o2)CN1C(=O)c1ccccc1-n1nccn1 [Example 61, 2-((3R,6R)-1-(2-(2H-1,2,3-Triazol-2-yl)benzoyl)-6-methylpiperidin-3-yl)-5-phenyloxazole-4-carboxamide] | 7.19 | 6.71
C[C@@H]1CC[C@@H](c2nc(CC(C)(C)O)c(-c3ccccc3)o2)CN1C(=O)c1ccccc1-n1nccn1 [Example 68, (2-(2H-1,2,3-Triazol-2-yl)phenyl)((2R,5R)-5-(4-(2-hydroxy-2-methylpropyl)-5-phenyloxazol-2-yl)-2-methylpiperidin-1-yl)methanone] | 7.02 | 7.21
COC(C)(C)Cc1nc([C@@H]2CC[C@@H](C)N(C(=O)c3ccccc3-n3nccn3)C2)oc1-c1ccccc1 [Example 69, (2-(2H-1,2,3-Triazol-2-yl)phenyl)((2R,5R)-5-(4-(2-methoxy-2-methylpropyl)-5-phenyl-oxazol-2-yl)-2-methylpiperidin-1-yl)methanone] | 6.41 | 6.54
C[C@@H]1CC[C@@H](c2nc(CCO)c(-c3ccccc3)o2)CN1C(=O)c1ccccc1-n1nccn1 [Example 70, (2-(2H-1,2,3-Triazol-2-yl)phenyl)((2R,5R)-5-(4-(2-hydroxyethyl)-5-phenyloxazol-2-yl)-2-methylpiperidin-1-yl)methanone] | 7.42 | 7.23
C[C@@H]1CC[C@@H](c2nc(CCF)c(-c3ccccc3)o2)CN1C(=O)c1ccccc1-n1nccn1 [Example 71, (2-(2H-1,2,3-triazol-2-yl)phenyl)((2R,5R)-5-(4-(2-fluoroethyl)-5-phenyloxazol-2-yl)-2-methylpiperidin-1-yl)methanone] | 7.15 | 7.21
Cc1ccc(-n2nccn2)c(C(=O)N2C[C@H](c3ncc(C)o3)CC[C@H]2C)c1 [Example 72, (5-Methyl-2-(2H-1,2,3-triazol-2-yl)phenyl)((2R,5R)-2-methyl-5-(5-methyloxazol-2-yl)piperidin-1-yl)methanone] | 5.34 | 6.36
C[C@@H]1CC[C@@H](c2ncc(C(C)(C)C)o2)CN1C(=O)c1ccccc1-n1nccn1 [Example 73, (2-(2H-1,2,3-Triazol-2-yl)phenyl)((2R,5R)-5-(5-(tert-butyl)oxazol-2-yl)-2-methylpiperidin-1-yl)methanone] | 6.82 | 7.52
C[C@@H]1CC[C@@H](c2ncc(-c3ccccc3)o2)CN1C(=O)c1ccccc1-n1nccn1 [Example 74, (2-(2H-1,2,3-Triazol-2-yl)phenyl)((2R, 5R)-2-methyl-5-(5-phenyloxazol-2-yl)piperidin-1-yl)methanone] | 7.26 | 6.95
C[C@@H]1CC[C@@H](c2ncc(C3CCC3)o2)CN1C(=O)c1ccccc1-n1nccn1 [Example 75, (2-(2H-1,2,3-Triazol-2-yl)phenyl)((2R, 5R)-5-(5-cyclobutyloxazol-2-yl)-2-methylpiperidin-1-yl)methanone] | 7.23 | 7.80
C[C@@H]1CC[C@@H](c2ncc(C3CC3)o2)CN1C(=O)c1ccccc1-n1nccn1 [Example 76, (2-(2H-1,2,3-Triazol-2-yl)phenyl)((2R, 5R)-5-(5-cyclopropyloxazol-2-yl)-2-methylpiperidin-1-yl)methanone] | 6.01 | 7.48
C[C@@H]1CC[C@@H](c2nc(-c3ccccc3)c(-c3ccccc3)o2)CN1C(=O)c1ccccc1-n1nccn1 [Example 77, (2-(2H-1,2,3-Triazol-2-yl)phenyl)((2R,5R)-5-(4,5-diphenyloxazol-2-yl)-2-methylpiperidin-1-yl)methanone] | 6.35 | 6.29
((2R,5R)-5-(4-(2-Hydroxypropan-2-yl)-5- methyloxazol-2-yl)-2-methylpiperidin-1-yl)(2- methoxyphenyl)methanone [Example 30] | < 5.00 | 7.53

Source: US9828368B2 (MERCK SHARP & DOHME CORP., priority 2013, dated 2017)
